Data taken from patent US10251394B2, “Molecules having pesticidal utility, and intermediates, compositions, and processes, related thereto” (Dow AgroSciences LLC, priority 2016, dated 2019).

Assays:
Assay type in all cases: in vivo
[1] = test system: Yellow Fever Mosquito (Aedes aegypti); experiment: Bioassay on Yellow Fever Mosquito (YFM) larvae, 96-well plate; settings: Table ABC
Method in brief: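 About 1-day-old larvae in water with liver powder were added to wells holding compound from a 4000 ppm DMSO master diluted in 90:10 water:acetone. Plates covered and kept at room temperature for 3 days, then each well scored for mortality on a rating scale.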

[2] = test system: Cabbage Looper (Trichoplusia ni); experiment: Bioassay on Cabbage Looper (CL), 128-well diet tray assay; settings: Cabbage Looper, Table ABC, read-out: CL rating
Method in brief: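 Mortality after five to seven days at 25° C (14:10 photoperiod), averaged over eight wells per compound. Diet in each well carried 50 μg/cm^2 of dried test molecule and received one to five second-instar larvae.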

[3] = test system: Beet Armyworm (Spodoptera exigua); experiment: Bioassay on Beet Armyworm (BAW), 128-well diet tray assay; settings: Beet Armyworm, Table ABC, read-out: BAW rating
Method in brief: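 Percent mortality, averaged over eight wells, was scored after five to seven days at 25° C under 14:10 light-dark. Each well's diet carried 50 μg/cm^2 of test molecule applied in acetone-water (90:10) and dried before one to five second-instar larvae were added.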

Row | Structure (SMILES) | YFM rating [1] | pest or weed control at 50 µg/cm2 [2] [%] | pest or weed control at 50 µg/cm2 [3] [%]
1 | C/C=C/c1c(Cl)cc(C(/C=C(\F)c2ccc(C(=O)N[C@H](C)C(=O)NCC(F)(F)F)c(C(F)(F)F)c2)C(F)(F)F)cc1Cl (stereo partly drawn) [F147, 4-((Z)-3-(3,5-Dichloro-4-((E)-prop-1-en-1-yl)phenyl)-1,4,4,4-tetrafluorobut-1-en-1-yl)-N—((R)-1-oxo-1-((2,2,2-trifluoroethyl)amino)propan-2-yl)-2-(trifluoromethyl)benzamide] | A (80-100) | 50 to 100 | 50 to 100
2 | O=C(CNC(=O)c1ccc(/C(F)=C/C(c2cc(F)c(F)c(Cl)c2)C(F)(F)F)cc1C(F)(F)F)NCC(F)(F)F (stereo not drawn) [F153, (Z)-4-(3-(3-Chloro-4,5-difluorophenyl)-1,4,4,4-tetrafluorobut-1-en-1-yl)-N-(2-oxo-2-((2,2,2-trifluoroethyl)amino)ethyl)-2-(trifluoromethyl)benzamide] | A (80-100) | 50 to 100 | 50 to 100
3 | O=C(CNC(=O)c1ccc(/C(F)=C/C(c2cc(F)cc(Cl)c2)C(F)(F)F)cc1C(F)(F)F)NCC(F)(F)F (stereo not drawn) [F157, (Z)-4-(3-(3-Chloro-5-fluorophenyl)-1,4,4,4-tetrafluorobut-1-en-1-yl)-N-(2-oxo-2-((2,2,2-trifluoroethyl)amino)ethyl)-2-(trifluoromethyl)benzamide] | A (80-100) | 50 to 100 | 50 to 100
4 | C[C@@H](NC(=O)c1ccc(/C(F)=C/C(c2cc(F)c(F)c(F)c2)C(F)(F)F)cc1C(F)(F)F)C(=O)NCC(F)(F)F (stereo partly drawn) [F159, N—((R)-1-Oxo-1-((2,2,2-trifluoroethyl)amino)propan-2-yl)-4-((Z)-1,4,4,4-tetrafluoro-3-(3,4,5-trifluorophenyl)but-1-en-1-yl)-2-(trifluoromethyl)benzamide] | A (80-100) | 50 to 100 | 50 to 100
5 | COc1ccc(C(/C=C(\F)c2ccc(C(=O)N[C@H](C)C(=O)NCC(F)(F)F)c(C(F)(F)F)c2)C(F)(F)F)cc1Cl (stereo partly drawn) [F161, 4-((Z)-3-(3-Chloro-4-methoxyphenyl)-1,4,4,4-tetrafluorobut-1-en-1-yl)-N—((R)-1-oxo-1-((2,2,2-trifluoroethyl)amino)propan-2-yl)-2-(trifluoromethyl)benzamide] | A (80-100) | 50 to 100 | 50 to 100
6 | CC(=O)CNC(=O)CNC(=O)c1ccc(/C(F)=C/C(c2cc(Cl)c(Cl)c(Cl)c2)C(F)(F)F)cc1C(F)(F)F (stereo not drawn) [F163, (Z)—N-(2-Oxo-2-((2-oxopropyl)amino)ethyl)-4-(1,4,4,4-tetrafluoro-3-(3,4,5-trichlorophenyl)but-1-en-1-yl)-2-(trifluoromethyl)benzamide] | A (80-100) | 50 to 100 | 50 to 100
7 | CCc1ccc(C(/C=C(\F)c2ccc(C(=O)N[C@H](C)C(=O)NCC(F)(F)F)c(C(F)(F)F)c2)C(F)(F)F)cc1Cl (stereo partly drawn) [F164, 4-((Z)-3-(3-Chloro-4-ethylphenyl)-1,4,4,4-tetrafluorobut-1-en-1-yl)-N—((R)-1-oxo-1-((2,2,2-trifluoroethyl)amino)propan-2-yl)-2-(trifluoromethyl)benzamide] | B (More than 0-Less than 80) | 50 to 100 | 50 to 100
8 | CCc1ccc(C(/C=C(\F)c2ccc(C(=O)NCC(=O)NCC(F)(F)F)c(C(F)(F)F)c2)C(F)(F)F)cc1Cl (stereo not drawn) [F165, (Z)-4-(3-(3-Chloro-4-ethylphenyl)-1,4,4,4-tetrafluorobut-1-en-1-yl)-N-(2-oxo-2-((2,2,2-trifluoroethyl)amino)ethyl)-2-(trifluoromethyl)benzamide] | B (More than 0-Less than 80) | 50 to 100 | 50 to 100
9 | C[C@@H](NC(=O)c1ccc(/C(F)=C/C(c2cc(Cl)c(Cl)c(Cl)c2)C(F)(F)F)cc1C(F)(F)F)C(=O)N(C)C (stereo partly drawn) [F172, N—((R)-1-(Dimethylamino)-1-oxopropan-2-yl)-4-((Z)-1,4,4,4-tetrafluoro-3-(3,4,5-trichlorophenyl)but-1-en-1-yl)-2-(trifluoromethyl)benzamide] | B (More than 0-Less than 80) | 50 to 100 | 50 to 100
10 | C[C@@H](NC(=O)c1ccc(/C(F)=C/C(c2ccc(C(F)(F)F)c(Cl)c2)C(F)(F)F)cc1C(F)(F)F)C(=O)NCC(F)(F)F (stereo partly drawn) [F205, 4-((Z)-3-(3-Chloro-4-(trifluoromethyl)phenyl)-1,4,4,4-tetrafluorobut-1-en-1-yl)-N—((R)-1-oxo-1-((2,2,2-trifluoroethyl)amino)propan-2-yl)-2-(trifluoromethyl)benzamide] | B (More than 0-Less than 80) | 50 to 100 | 50 to 100
11 | C[C@@H](NC(=O)c1ccc(/C(F)=C/C(c2ccc(C(F)(F)F)c(Br)c2)C(F)(F)F)cc1C(F)(F)F)C(=O)NCC(F)(F)F (stereo partly drawn) [F208, 4-((Z)-3-(3-Bromo-4-(trifluoromethyl)phenyl)-1,4,4,4-tetrafluorobut-1-en-1-yl)-N—((R)-1-oxo-1-((2,2,2-trifluoroethyl)amino)propan-2-yl)-2-(trifluoromethyl)benzamide] | A (80-100) | 50 to 100 | 50 to 100
12 | O=C(CNC(=O)c1ccc(/C(F)=C/C(c2ccc(C(F)(F)F)c(Br)c2)C(F)(F)F)cc1C(F)(F)F)NCC(F)(F)F (stereo not drawn) [F209, (Z)-4-(3-(3-Bromo-4-(trifluoromethyl)phenyl)-1,4,4,4-tetrafluorobut-1-en-1-yl)-N-(2-oxo-2-((2,2,2-trifluoroethyl)amino)ethyl)-2-(trifluoromethyl)benzamide] | A (80-100) | 50 to 100 | 50 to 100
13 | C[C@@H](NC(=O)c1ccc(/C(F)=C/C(c2ccc(C(F)(F)F)c(F)c2)C(F)(F)F)cc1C(F)(F)F)C(=O)NCC(F)(F)F (stereo partly drawn) [F210] | B (More than 0-Less than 80) | 50 to 100 | 50 to 100
14 | C[C@@H](NC(=O)c1ccc(/C(F)=C/C(c2cc(Cl)c(Cl)c(Cl)c2)C(F)(F)F)c2ccccc12)C(=O)NCC(F)(F)F (stereo partly drawn) [PF1, N—((R)-1-Oxo-1-((2,2,2-trifluoroethyl)amino)propan-2-yl)-4-((Z)-1,4,4,4-tetrafluoro-3-(3,4,5-trichlorophenyl)but-1-en-1-yl)-1-naphthamide] | A (80-100) | 50 to 100 | 50 to 100
15 | C[C@@H](NC(=O)c1ccc(/C(F)=C/C(c2ccc(Br)c(Br)c2)C(F)(F)F)cc1C(F)(F)F)C(=O)N(C)CC(F)(F)F (stereo partly drawn) [PF2, 4-((Z)-3-(3,4-Dibromophenyl)-1,4,4,4-tetrafluoro-but-1-en-1-yl)-N—((R)-1-(methyl(2,2,2-trifluoroethyl)amino)-1-oxopropan-2-yl)-2-(trifluoromethyl)benzamide] | A (80-100) | 50 to 100 | 50 to 100
16 | CN(CC(F)(F)F)C(=O)CNC(=O)c1ccc(/C(F)=C/C(c2ccc(Br)c(Br)c2)C(F)(F)F)cc1C(F)(F)F (stereo not drawn) [PF4, (Z)-4-(3-(3,4-Dibromophenyl)-1,4,4,4-tetrafluorobut-1-en-1-yl)-N-(2-(methyl(2,2,2-trifluoroethyl)amino]-2-oxoethyl)-2-(trifluoromethyl)benzamide] | A (80-100) | 50 to 100 | 50 to 100
17 | C[C@@H](NC(=O)c1ccc(/C(F)=C/C(c2ccc(F)c(Cl)c2)C(F)(F)F)cc1C(F)(F)F)C(=O)N(C)CC(F)(F)F (stereo partly drawn) [PF8, 4-((Z)-3-(3-Chloro-4-fluorophenyl)-1,4,4,4-tetrafluorobut-1-en-1-yl)-N—((R)-1-(methyl(2,2,2-trifluoroethyl)amino)-1-oxopropan-2-yl)-2-(trifluoromethyl)benzamide] | B (More than 0-Less than 80) | 50 to 100 | 50 to 100
18 | CN(CC(F)(F)F)C(=O)C1(NC(=O)c2ccc(/C(F)=C/C(c3ccc(F)c(Cl)c3)C(F)(F)F)cc2C(F)(F)F)CC1 (stereo not drawn) [PF10] | A (80-100) | 50 to 100 | 50 to 100
19 | Cc1cc(C(/C=C(\F)c2ccc(C(=O)NCC(=O)N(C)CC(F)(F)F)c(C(F)(F)F)c2)C(F)(F)F)cc(Cl)c1Cl (stereo not drawn) [PF12, (Z)-4-(3-(3,4-Dichloro-5-methylphenyl)-1,4,4,4-tetrafluoro-but-1-en-1-yl)-N-(2-(methyl(2,2,2-trifluoroethyl)amino)-2-oxoethyl)-2-(trifluoromethyl)benzamide] | B (More than 0-Less than 80) | 50 to 100 | 50 to 100
20 | Cc1cc(C(/C=C(\F)c2ccc(C(=O)N[C@H](C)C(=O)NCC(F)(F)F)c(C(F)(F)F)c2)C(F)(F)F)cc(Cl)c1Cl (stereo partly drawn) [PF13] | B (More than 0-Less than 80) | 50 to 100 | 50 to 100
21 | Cc1cc(C(/C=C(\F)c2ccc(C(=O)N[C@H](C)C(=O)N(C)CC(F)(F)F)c(C(F)(F)F)c2)C(F)(F)F)cc(Cl)c1Cl (stereo partly drawn) [PF14, 4-((Z)-3-(3,4-Dichloro-5-methylphenyl)-1,4,4,4-tetrafluorobut-1-en-1-yl)-N—((R)-1-(methyl(2,2,2-trifluoroethyl)amino)-1-oxopropan-2-yl)-2-(trifluoromethyl)benzamide] | A (80-100) | 50 to 100 | 50 to 100
